Peptide text beside a SMILES is read from it.
Key:
[1] = Alexa488-SA-labelled IM3 binding to metal-charged NTA-coated plate (x2B c)
Method: (§1) NTA-metal-affinity fluorescence assay was performed using 96-well NTA-metal-coated plates readily available from commercial sources such as Qiagen (Germantown, MD). NTA was charged with ferrous or ferric iron, zinc, copper, calcium, vanadium, ruthenium, cobalt, titanium, manganese or other metals. 400 ng of FITC-labeled immodulator peptide (or biotinylated immodulator peptide complexed to Alexa-488-labeled streptavidin) in PBS buffer was added per plate. After incubation at room temperature for 60 minutes, excess peptide was washed off and peptide was detected by measuring fluorescence (excitation 490 nm, emmission 525 nm) in a fluorometer. • (a) Using FITC-labeled IM3 peptide (1 ug/well) in the fluorescent binding assay: • EDTA-treated control: 2,251±1,186 • Ferrous iron: 170,441±11,264 (p<0.001)* • Copper: 13,644±5566 (p<0.05)* • Calcium: 48,822±11,990 (p<0.01)* • *p values are relative to EDTA-treated control • (b) Competition binding assay to ferrous iron, calcium, copper and zinc-charged NTA-coated plates using FITC-labeled IM3 peptide (0.5 uM) and 8× (4 uM) unlabelled competitor peptides IM3N1, IM3N2 (*all comparisons to PBS control are p<0.01); # fluorescent value of binding to […] was set at 100.
• (c) Alexa488-SA-labelled immodulator peptide IM3 (400 ng/well) bound to NTA-coated plate charged with the indicated metals: # fluorescent value of binding to ferrous iron was set at 100. *p<0.01 relative to control.
Ferrous iron # (100±2.6*); Control (no metal): 6.4±3.1; Ferric iron: 94.1±6.6*; Calcium: 47.6±3.7*; Vanadium: 53.9±5.5*; Manganese: 54.4±11.2*; Cobalt: 25.4±2.3*; Copper: 58.4±6.4*; Zinc: 71.4±8.3*; Ruthenium: 67.8±8.3*; (d) Alexa488-SA-labelled immodulator peptide IM1, IM2, IM3, IM4, IM5, IM6 (400 ng/well) were bound to NTA-coated plate charged with the indicated metals: # background (no peptide) control set to 1.0;*p<0.05, **p<0.01 vs “no peptide”

[2] = NTA-metal-affinity fluorescence assay, FITC-labeled IM3 (x2B a); type: binding; settings: FITC-labeled IM3 1 ug/well
Method: as §1

rat scald model = test: Rat scald model, N-terminally modified nephrilin-iron complexes (x5B); type: in vivo, Sprague Dawley rats; settings: male rats, burn, 2 mg/kg peptide complexed with ferric iron, sc days 1-7
Method: Effect of N-terminal modifications on the efficacy of nephrilin IM3N1 peptide in the rat scald model. In this study, five nephrilin-iron binary complexes were compared: IM3N1 (unmodified) and the following: IM3N1vlp (valproic acid), IM3N1dec (decanoic acid), IM3N1fen (fenofibric acid), and IM3N1ibu (ibuprofen). Adult male Sprague Dawley rats (300 gm, Charles River Laboratories, Wilmington, MA, USA) were injected with peptides formulated with equimolar metal ferric iron once daily by subcutaneous bolus injection, days 1-7.
Treatment group sizes were (n=6) for each group: group S=sham-treated; group B=burn+vehicle; group N1=burn+2 mg/kg nephrilin IM3N1; group N1V=burn+2 mg/kg IM3N1vlp; group N1D=burn+2 mg/kg IM3N1dec; group N1F=burn+2 mg/kg IM3N1fen; group N1I=burn+2 mg/kg IM3N1ibu. The first dose was administered after completion of the scald procedure. Injection volume was 400 uL. Control animals received the same volume of vehicle. Rat scald model was performed and measurements taken as described in Experiment x5A.

[3] = NTA-metal-affinity ELISA (Experiment x2A); type: binding
Method: The NTA-metal-affinity ELISA assay was performed using 96-well NTA-metal-coated plates readily available from commercial sources such as Qiagen (Germantown, MD). The NTA was charged with ferrous or ferric iron, zinc, copper, calcium, vanadium, ruthenium, cobalt, titanium, manganese or other metals. 400 ng of immodulator peptide IM3N1 in PBS buffer was added per plate. After incubation at room temperature for 60 minutes, excess peptide was washed off and peptide was detected by ELISA using an anti-immodulator rabbit primary antibody (A2501) and horseradish peroxidase conjugated to a secondary anti-rabbit antibody (arbitrary units)*vs EDTA control: • EDTA (no metal): 0.047±0.001 • Fe2+ (Ferrous): 0.844±0.026 (p<0.001*) • Fe3+ (Ferric): 0.848±0.011 (p<0.001*) • Zn2+ (Zinc): 0.194±0.089 (p<0.05*) • Cu2+ (Copper): 0.229±0.086 (p<0.05*)

Q: What does the source list for `N=C(N)NCCC[C@H](NC(=O)CNC(=O)[C@H](CCCCN)NC(=O)[C@H](CO)NC(=O)[C@@H]1CCCN1C(=O)[C@H](CCCNC(=N)N)NC(=O)[C@H](CS)NC(=O)[C@H](CCC(N)=O)NC(=O)[C@H](CCCCN)NC(=O)[C@H](CCCCN)NC(=O)[C@H](CCCCN)NC(=O)[C@H](Cc1ccc(O)cc1)NC(=O)[C@H](Cc1ccccc1)NC(=O)CNC(=O)[C@H](CCCCN)NC(=O)[C@@H](N)CCCCN)C(=O)N[C@@H](CCCCN)C(=O)N[C@@H](CCCNC(=N)N)C(=O)NCC(=O)N[C@@H](Cc1ccccc1)C(=O)N[C@@H](CS)C(=O)N[C@@H](Cc1c[nH]c2ccccc12)C(=O)O` [IM3] (H-KKGFYKKKQCRPSKGRKRGFCW-OH; N-terminus and C-terminus assumed)?
A: fluorescence ([1]; Calcium, ferrous iron = 100): 47.6±3.7; fluorescence ([1]; Cobalt, ferrous iron = 100): 25.4±2.3; fluorescence ([1]; Control (no metal), ferrous iron = 100): 6.4±3.1; fluorescence ([1]; Copper, ferrous iron = 100): 58.4±6.4; fluorescence ([1]; Ferric iron, ferrous iron = 100): 94.1±6.6; fluorescence ([1]; Ferrous iron, set at 100, 400 ng/well): 100±2.6; fluorescence ([1]; Manganese, ferrous iron = 100): 54.4±11.2; fluorescence ([1]; Ruthenium, ferrous iron = 100): 67.8±8.3; fluorescence ([1]; Vanadium, ferrous iron = 100): 53.9±5.5; fluorescence ([1]; Zinc, ferrous iron = 100): 71.4±8.3; fluorescence ([2]; Calcium): 48,822±11,990; fluorescence ([2]; Copper): 13,644±5566; fluorescence ([2]; EDTA-treated control): 2,251±1,186; fluorescence ([2]; Ferrous iron): 170,441±11,264

Q: Which results are given for “RGVTEDYLRLETLVQKVVSKGFYKKKQCRPSKGRKRGFCW [IM3N1]”?
A: 1: early inflammation (24-hr plasma IL-6) (rat scald model): 38.5 ± 27.8 pg/mL; 2a: 14-day plasma inflammasome marker IL18 (rat scald model): 220.4 ± 32.1 pg/mL; 2b: 14-day plasma inflammasome marker IL1b (rat scald model): 52.9 ± 7.8 pg/mL; 3a: 14-day plasma hyperangiogenesis marker VEGF-A (rat scald model): 37.8 ± 15.3 pg/mL; 3b: 14-day plasma hyperangiogenesis marker CCL5 (rat scald model): 248.3 ± 29.7 pg/mL; 3c: 14-day plasma hyperangiogenesis marker CXCL5 (rat scald model): 855 ± 233 pg/mL; 4: glycemic control, 14-day GTT (AUC) (rat scald model): 136.4 ± 69.2 mg·dL·h; 5: kidney function, 14-day plasma creatinine (rat scald model): 0.31 ± 0.09 mg/dL; 6: systemic oxidative stress, 14-day plasma OHDG (rat scald model): 374 ± 187 pg/mL; 7: weight loss (slope) (rat scald model): 2.99 ± 0.53; 3d: hyperangiogenesis marker PctRedPix (rat scald model): 6.53 ± 3.16; peptide bound, ELISA ([3]; Cu2+ (Copper)): 0.229±0.086 arbitrary units; peptide bound, ELISA ([3]; EDTA (no metal), 400 ng peptide): 0.047±0.001 arbitrary units; peptide bound, ELISA ([3]; Fe2+ (Ferrous)): 0.844±0.026 arbitrary units; peptide bound, ELISA ([3]; Fe3+ (Ferric)): 0.848±0.011 arbitrary units; peptide bound, ELISA ([3]; Zn2+ (Zinc)): 0.194±0.089 arbitrary units
